The experiment relates to AMPK. The experiment in a line: AMPK activation, enzyme-linked immunosorbent assay. It is filed as cell-based. In outline:
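Reported in ranges of less than 1 μM, 1-10 μM, 10-20 μM, 20-50 μM, 50-100 μM, and >100 μM, the values come from a cell-based assay. There, an enzyme-linked immunosorbent assay measured the relative concentration of phosphorylated acetyl-CoA carboxylase as a readout of AMPK activity. The endpoint is the EC50 of each compound for AMPK activation.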
With `N#Cc1ccc(CN2CCC(NC(=O)c3ccc(OC4CCN(c5ccc(C(F)(F)F)cc5)CC4)c(F)c3)CC2)cc1` [Compound 43, N-(1-(4-cyanobenzyl)piperidin-4-yl)-3-fluoro-4-(1-(4-(trifluoromethyl)phenyl)piperidin-4-yloxy)benzamide], the EC50 was < 1000 nM.

Take `O=C(NC1CCN(Cc2ccccc2)CC1)c1ccc(OC2CCN(C(=O)c3ccc(C(F)(F)F)cc3)CC2)c(Cl)c1` [Compound 18, N-(1-benzylpiperidin-4-yl)-3-chloro-4-(1-(4-(trifluoromethyl)benzoyl)piperidin-4-yloxy)benzamide]: the EC50 is < 1000 nM.

For `COc1cc(C(=O)NCCCN2CCOCC2)ccc1OC1CCN(Cc2ccc(Cl)cc2)CC1` [Compound 98], the concentration giving a half-maximal response (EC50) lay in the range of 1000 to 10000 nM.

On to `O=C(NC1CCN(Cc2ccccc2)CC1)c1ccc(OC2CCN(Cc3cccc(C(F)(F)F)c3)CC2)c(Cl)c1` [Compound 60, N-(1-benzylpiperidin-4-yl)-3-chloro-4-(1-(3-(trifluoromethyl)benzyl)piperidin-4-yloxy)benzamide], for which the EC50 is < 1000 nM.

`O=C(NC1CCN(Cc2ccccc2)CC1)c1ccc(OC2CCN(Cc3ccco3)CC2)cc1` [Compound 3, N-(1-benzylpiperidin-4-yl)-4-(1-(furan-2-ylmethyl)piperidin-4-yloxy)benzamide] returned an EC50 of 1000 to 10000 nM.

As to `O=C(NC1CCN(C(=O)c2ccncc2)CC1)c1ccc(OC2CCN(c3ccc(C(F)(F)F)cc3)CC2)c(F)c1` [Compound 40, 3-fluoro-N-(1-isonicotinoylpiperidin-4-yl)-4-(1-(4-(trifluoromethyl)phenyl)piperidin-4-yloxy)benzamide], the EC50 is < 1000 nM.

Regarding `N#Cc1ccc(CN2CCC(Oc3c(Cl)cc(C(=O)NC4CCN(Cc5ccccc5)CC4)cc3Cl)CC2)cc1` [Compound 77, N-(1-benzylpiperidin-4-yl)-3,5-dichloro-4-(1-(4-cyanobenzyl)piperidin-4-yloxy)benzamide], the EC50 is < 1000 nM.

For the compound `N#Cc1ccc(CN2CCC(Oc3ccc(C(=O)NC4CCN(Cc5ccc(Cl)cc5)CC4)cc3F)CC2)cc1` [Compound 70, N-(1-(4-chlorobenzyl)piperidin-4-yl)-4-(1-(4-cyanobenzyl)piperidin-4-yloxy)-3-fluorobenzamide], the EC50 is < 1000 nM.

For `O=C(NCCCN1CCOCC1)c1ccc(OC2CCN(Cc3ccc(Cl)cc3)CC2)cc1` [Compound 100, 4-(1-(4-chlorobenzyl)piperidin-4-yloxy)-N-(3-morpholinopropyl)benzamide], the EC50 was in the range of 1000 to 10000 nM.

For `CC(C)S(=O)(=O)N1CCC(NC(=O)c2ccc(OC3CCN(c4ccc(C(F)(F)F)cc4)CC3)c(F)c2)CC1` [Compound 34, 3-fluoro-N-(1-(isopropylsulfonyl)piperidin-4-yl)-4-(1-(4-(trifluoromethyl)phenyl)piperidin-4-yloxy)benzamide], the EC50 was < 1000 nM.

For `O=C(NC1CCN(c2ccccc2)CC1)c1ccc(OC2CCN(c3ccc(C(F)(F)F)cc3)CC2)c(F)c1` [Compound 25, 3-fluoro-N-(1-phenylpiperidin-4-yl)-4-(1-(4-(trifluoromethyl)phenyl)piperidin-4-yloxy)benzamide], the EC50 was > 100000 nM.

`N#Cc1ccc(CN2CCC(NC(=O)c3ccc(OC4CCN(c5ccc(C#N)cc5)CC4)c(F)c3)CC2)cc1` [Compound 45, N-(1-(4-cyanobenzyl)piperidin-4-yl)-4-(1-(4-cyanophenyl)piperidin-4-yloxy)-3-fluorobenzamide]: the EC50 is < 1000 nM.

Consider `N#Cc1ccc(N2CCC(Oc3ccc(C(=O)NC4CCN(Cc5ccccc5)CC4)c(Cl)c3)CC2)cc1` [Compound 49, N-(1-benzylpiperidin-4-yl)-2-chloro-4-(1-(4-cyanophenyl)piperidin-4-yloxy)benzamide], for which the EC50 is < 1000 nM.

Compound `Cc1ccc(CN2CCC(Oc3ccc(C(=O)NCCCN4CCOCC4)cc3)CC2)cc1` [Compound 104, 4-(1-(4-methylbenzyl)piperidin-4-yloxy)-N-(3-morpholinopropyl)benzamide] returned an EC50 of 10000 to 20000 nM.

`CC(C)(C)C(=O)N1CCC(NC(=O)c2ccc(OC3CCN(c4ccc(C(F)(F)F)cc4)CC3)c(F)c2)CC1` [Compound 30, 3-fluoro-N-(1-pivaloylpiperidin-4-yl)-4-(1-(4-(trifluoromethyl)phenyl)piperidin-4-yloxy)benzamide]: the EC50 is < 1000 nM.

With `CC(C)(C)OC(=O)NCCCNC(=O)c1ccc(OC2CCN(Cc3ccccc3)CC2)c(Cl)c1` [Compound 102, tert-butyl 3-(4-(1-benzylpiperidin-4-yloxy)-3-chlorobenzamido)propylcarbamate], the EC50 was 10000 to 20000 nM.

Regarding `O=C(NC1CCN(Cc2ccccc2)CC1)c1ccc(OC2CCN(Cc3ccc(F)cc3)CC2)c(F)c1` [Compound 61, N-(1-benzylpiperidin-4-yl)-3-fluoro-4-(1-(4-fluorobenzyl)piperidin-4-yloxy)benzamide], the EC50 is < 1000 nM.

`N#Cc1ccc(CN2CCC(Oc3cccc(C(=O)NC4CCN(Cc5ccccc5)CC4)c3)CC2)cc1` [Compound 50, N-(1-benzylpiperidin-4-yl)-3-(1-(4-cyanobenzyl)piperidin-4-yloxy)benzamide]: the EC50 lay within 1000 to 10000 nM.

In the case of `O=C(NC1CCN(Cc2ccccc2)CC1)c1ccc(OC2CCNCC2)c(Cl)c1` [Compound 93, N-(1-benzylpiperidin-4-yl)-3-chloro-4-(piperidin-4-yloxy)benzamide], the EC50 is > 100000 nM.

For `O=C(NC1CCN(Cc2ccccc2)CC1)c1ccc(OC2CCN(Cc3ccc(C(F)(F)F)cc3)CC2)c(Cl)c1` [Compound 56, N-(1-benzylpiperidin-4-yl)-3-chloro-4-(1-(4-(trifluoromethyl)benzyl)piperidin-4-yloxy)benzamide], the 50% effective concentration (EC50) is < 1000 nM.

Take `O=C(NC1CCN(Cc2ccccc2)CC1)c1ccc(OC2CCN(c3ccc(C(F)(F)F)cc3)CC2)cc1Cl` [Compound 47, N-(1-benzylpiperidin-4-yl)-2-chloro-4-(1-(4-(trifluoromethyl)phenyl)piperidin-4-yloxy)benzamide]: the EC50 was < 1000 nM.

Turning to `COc1ccc(CN2CCC(Oc3ccc(C(=O)NCCCNC(=O)OC(C)(C)C)cc3Cl)CC2)cc1` [Compound 97, tert-butyl 3-(3-chloro-4-(1-(4-methoxybenzyl)piperidin-4-yloxy)benzamido)propylcarbamate], the EC50 was 1000 to 10000 nM.

For `N#Cc1ccc(CN2CCC(Oc3ccc(C(=O)NC4CCN(Cc5ccccc5)CC4)cc3F)CC2)cc1` [Compound 41, N-(1-benzylpiperidin-4-yl)-4-(1-(4-cyanobenzyl)piperidin-4-yloxy)-3-fluorobenzamide], the EC50 is < 1000 nM.

In the case of `N#Cc1ccc(CN2CCC(Oc3ccc(C(=O)NC4CCN(Cc5ccccc5)CC4)c(Cl)c3)CC2)cc1` [Compound 51, N-(1-benzylpiperidin-4-yl)-2-chloro-4-(1-(4-cyanobenzyl)piperidin-4-yloxy)benzamide], the EC50 is < 1000 nM.

The compound `O=C(NC1CCN(Cc2ccccc2)CC1)c1cccc(OC2CCN(c3ccncc3)CC2)c1` [Compound 53, N-(1-benzylpiperidin-4-yl)-3-(1-(pyridin-4-yl)piperidin-4-yloxy)benzamide] had an EC50 of 10000 to 20000 nM.

Regarding `Cn1cncc1CN1CCC(Oc2ccc(C(=O)NC3CCN(Cc4ccccc4)CC3)cc2)CC1` [Compound 4, N-(1-benzylpiperidin-4-yl)-4-(1-((l-methyl-1H-imidazol-5-yl)methyl)piperidin-4-yloxy)benzamide], the EC50 was > 100000 nM.

Take `Cc1ccc(CN2CCC(Oc3ccc(C(=O)NC4CCN(Cc5ccc(Cl)cc5)CC4)cc3F)CC2)cc1` [Compound 73, N-(1-(4-chlorobenzyl)piperidin-4-yl)-3-fluoro-4-(1-(4-methylbenzyl)piperidin-4-yloxy)benzamide]: the EC50 was < 1000 nM.

As for `O=C(NC1CCN(Cc2ccncc2)CC1)c1cccc(OC2CCN(c3ccc(C(F)(F)F)cc3)CC2)c1` [Compound 87, N-(1-(pyridin-4-ylmethyl)piperidin-4-yl)-3-(1-(4-(trifluoromethyl)phenyl)piperidin-4-yloxy)benzamide], the EC50 was < 1000 nM.

The compound `N#Cc1cccc(CN2CCC(Oc3cccc(C(=O)NC4CCN(Cc5ccccc5)CC4)c3)CC2)c1` [Compound 89, N-(1-benzylpiperidin-4-yl)-3-(1-(3-cyanobenzyl)piperidin-4-yloxy)benzamide] returned an EC50 of 1000 to 10000 nM.

For the compound `O=C(NC1CCN(C(=O)c2ccc(F)cc2)CC1)c1ccc(OC2CCN(c3ccc(C(F)(F)F)cc3)CC2)c(F)c1` [Compound 31, 3-fluoro-N-(1-(4-fluorobenzoyl)piperidin-4-yl)-4-(1-(4-(trifluoromethyl)phenyl)piperidin-4-yloxy)benzamide], the EC50 is < 1000 nM.

For `CC(c1ccccc1)N1CCC(Oc2ccc(C(=O)NC3CCN(Cc4ccccc4)CC3)cc2F)CC1` (centres unmarked) [Compound 21, N-(1-benzylpiperidin-4-yl)-3-fluoro-4-(1-(1-phenylethyl)piperidin-4-yloxy)benzamide], the EC50 was 1000 to 10000 nM.

For `CC(C)(C)c1ccc(CN2CCC(Oc3ccc(C(=O)NC4CCN(c5ccccc5)CC4)cc3F)CC2)cc1` [Compound 36, 4-(1-(4-tert-butylbenzyl)piperidin-4-yloxy)-3-fluoro-N-(1-phenylpiperidin-4-yl)benzamide], the EC50 is < 1000 nM.

Consider `CC(C)(C)OC(=O)N1CCC(NC(=O)c2ccc(OC3CCN(c4ccc(C(F)(F)F)cc4)CC3)c(F)c2)CC1` [Compound 26, tert-butyl 4-(3-fluoro-4-(1-(4-(trifluoromethyl)phenyl)piperidin-4-yloxy)benzamido)piperidine-1-carboxylate], for which the EC50 was < 1000 nM.

As for `Cc1ccc(CN2CCC(Oc3ccc(C(=O)NC4CCN(Cc5ccccc5)CC4)cc3F)CC2)cc1` [Compound 42, N-(1-benzylpiperidin-4-yl)-3-fluoro-4-(1-(4-methylbenzyl)piperidin-4-yloxy)benzamide], the EC50 is < 1000 nM.

The compound `O=C(NC1CCN(Cc2ccccc2)CC1)c1ccc(OC2CCN(Cc3ccccc3C(F)(F)F)CC2)c(Cl)c1` [Compound 24, N-(1-benzylpiperidin-4-yl)-3-chloro-4-(1-(2-(trifluoromethyl)benzyl)piperidin-4-yloxy)benzamide] returned an EC50 of 10000 to 20000 nM.

Values taken from patent publication US8697727B2, “N-substituted-heterocycloalkyloxybenzamide compounds and methods of use” (Rigel Pharmaceuticals, Inc., priority 2006, dated 2014).
